{
  "source": "paper PMC8703873",
  "about": "“Structure and Activity of a Selective Antibiofilm Peptide SK-24 Derived from the NMR Structure of Human Cathelicidin LL-37” (Pharmaceuticals, 2021)",
  "key": {"[1]": {"tested_on": "A. baumannii B28-16 preformed biofilms", "test": "Disruption of preformed biofilms (XTT)", "type": "cell-based, Acinetobacter baumannii", "conditions": "biofilms formed for 24, 48 and 72 h, peptide at 8, 16, 32 or 64 μM for 24 h", "method": "The antibiofilm activities of peptides against the preformed biofilms of A. baumannii B28-16 and S. aureus USA300 LAC were evaluated as follows. Bacteria in the logarithmic growth phase were adjusted to a cell density of 10^5 colony forming unit (CFU)/mL. Two hundred microliter cells were seeded into each well of the 96-well plates. The plates were incubated at 37 °C to allow for the formation of biofilm for 24, 48, and 72 h, respectively. The planktonic cells were then removed, followed by a wash. The biofilms were then treated with 20 µL of 10× two-fold diluted peptides and 180 µL of fresh TSB media for 24 h at 37 °C. Cultures treated with water without peptide served as the positive control, and media treated with water was used as the negative control. To quantify the antibiofilm activity of the peptides, the XTT [2, 3-bis (2-methyloxy-4-nitro-5-sulfophenyl)-2H-tertazolium-5-carboxanilide] assay staining method was used to quantitate the live cells. Absorbance was read at 450 nm using a ChroMate microliter plate reader. The percentage biofilm growth for the peptide was plotted by assuming 100% biofilm growth in untreated bacterial control wells. Data were represented as mean ± standard deviation (SD). The data are statistically significant at p < 0.05. Plots were generated using GraphPad Prism v7 (GraphPad Software, San Diego, CA, USA)."}, "S. aureus USA300 LAC [2]": {"tested_on": "S. aureus USA300 LAC", "test": "Membrane depolarization (DiBAC4(3))", "type": "cell-based, Staphylococcus aureus", "conditions": "peptide 8 µM; similar trends at 16 and 32 µM; DiBAC4(3) fluorescence", "method": "The experiment was conducted as described. In brief, an overnight culture of S. aureus USA300 LAC was subcultured in a fresh TSB medium and grown to the exponential phase. Cells were spun using centrifugation and washed twice with PBS, and resuspended in twice the volume of PBS containing 25 mM glucose and incubated at 37 °C for 15 min. For membrane depolarization measurements, 500 nM (final concentration) of the dye DiBAC4 (3) (bis-(1,3- dibutylbarbituric acid) trimethine oxonol) (AnaSpec, San Jose, CA, USA) was added and vortexed gently. Aliquots of 90 μL of the energized bacteria solution were loaded to the wells, and the plate was fed into a FLUOstar Omega microplate reader. Fluorescence was read for 20 min at excitation and emission wavelengths of 485 and 520 nm, respectively, to get dye normalization. Then 10 μL of diluted peptide solutions were added and gently mixed. Fluorescence readings were recorded for 40 min, where Triton X-100 (0.1%) was used as a positive control."}, "[3]": {"tested_on": "S. aureus USA300 LAC preformed biofilms", "conditions": "S. aureus USA300 LAC and other clinical strains (USA200, USA400, Mu50); cited from earlier work", "method": "Here, we compared the antibiofilm activity of SK-24 with that of GF-17, GI-20, and 17BIPHE2 against the 24 h preformed biofilms of S. aureus USA300. […] Only SK-24 a ..."}, "S. aureus USA300 LAC [4]": {"tested_on": "S. aureus USA300 LAC", "test": "Membrane permeabilization (propidium iodide)", "type": "cell-based, Staphylococcus aureus", "conditions": "peptide 8 µM; propidium iodide fluorescence, 2 h, PBS, 37 °C", "method": "(§1) Membrane permeabilization was evaluated as described. In brief, bacteria were inoculated and grown overnight. A second inoculation was made and let bacteria grow to the exponential phase. Bacteria were then spun, washed, and resuspended in the same volume of PBS. A series of peptide solutions (10×) was made via two-fold dilution in a 96-well plate (10 µL each). All wells were aliquoted with 2 µL of propidium iodide (20 µM), followed by adding 88 µL of S. aureus USA300 or A. baumannii B28-16 (OD600 ~0.11 in PBS). The plate was incubated at 37 °C with continuous shaking at 100 rpm in a FLUOstar Omega microplate reader (BMG Labtech Inc., Cary, NC, USA). Fluorescence was recorded every 5 min for 2 h with excitation and emission wavelengths of 485 and 620 nm. The data were analyzed by the vendor’s software using averaged values from duplicated experiments."}, "S. aureus USA300": {"tested_on": "S. aureus USA300", "type": "cell-based, Staphylococcus aureus", "method": "(§2) The antibiotic-resistant pathogens used in this study include the Gram-positive bacteria Enterococcus faecium V286-17 and Staphylococcus aureus USA300 LAC and the Gram-negative bacteria Klebsiella pneumoniae E406-17, Acinetobacter baumannii B28-16, Pseudomonas aeruginosa E411-17, and Escherichia coli E423-17. All bacteria were cultivated in tryptic soy broth (TSB) at 37 °C, 220 rpm.\n(§3) The antibacterial activity of peptides was evaluated using a standard broth microdilution protocol with minor modifications. In brief, peptides were made at various concentrations, 10 μL per well in a 96-well polystyrene microplate. Logarithmic phase bacterial cultures (i.e., optical density (OD) at 600 nm ≈ 0.5) were diluted to 0.001 OD, and aliquots of 90 μL were added to each well. Untreated bacterial culture and medium were included as positive and negative controls, respectively. Plates were incubated at 37 °C overnight and read at 630 nm using a ChroMate Microplate Reader (Awareness Technology, Palm City, FL, USA). […] Our previously designed peptide 17BIPHE2 [32] was included as a positive control, and RI-10, a peptide without antibacterial activity in rich media, was utilized as a negative control."}, "A. baumannii B28-16 [5]": {"tested_on": "A. baumannii B28-16", "test": "Membrane permeabilization (propidium iodide)", "type": "cell-based, Acinetobacter baumannii", "conditions": "peptide 16 µM; propidium iodide fluorescence, 2 h, PBS, 37 °C", "method": "as §1"}, "[6]": {"tested_on": "clinical and antibiotic-resistant pathogens (panel of Table 3)", "type": "cell-based", "conditions": "all pathogens of Table 3; peptide 32 µM", "method": "as §2, §3"}, "E. faecium V284-17": {"tested_on": "E. faecium V284-17", "type": "cell-based, Enterococcus faecium", "conditions": "V284-17"}, "E. coli E423-17": {"tested_on": "E. coli E423-17", "type": "cell-based, Escherichia coli", "method": "as §2, §3"}, "[7]": {"test": "HPLC retention time (measure of peptide hydrophobicity)", "type": "physicochemical", "conditions": "chromatographic, Waters C8 symmetry hydrophobic column, as described in ref 34; used as indicator of peptide hydrophobicity", "from_the_text": "In the membrane-bound LL-37 structure determined by 3D NMR spectroscopy, a hydrophobic gap exists (Figure 1A). The location of a hydrophilic S9 on the hydrophobic surface of LL-37 splits the long helix into two hydrophobic domains (gold sticks). The SK-24 peptide we identified here corresponds to the long hydrophobic domain [26]. The amino acid sequence of SK-24, along with LL-37 and its derived antimicrobial peptides, is depicted in Figure 1B. Peptide parameters, including net charge, hydrophobic content, Boman index, GRAVY, hydrophobicity, and hydrophobic moment of each peptide, were calculated using online tools, such as the APD [8] and HeliQuest (Table 1). Except for the shortest RI-10 (net charge +3), LL-37 and its other derived peptides have net charges +5 or +6, above the average net charge (+3.3) of natural antimicrobial peptides registered in the APD [8, 35, 36]. Overall, the hydrophobic percentages (Pho) of these peptides calculated in the APD are proportional to the hydrophobicity and hydrophobic moment calculated by HeliQuest in Table 1. Of note, LL-37 has the highest net charge (+6) and Boman index but the lowest Pho%, GRAVY, and hydrophobic moment.\nAll peptides were chemically synthesized and purified to >95% (Genemed Synthesis, San Antonio, TX, USA). The quality of each peptide was determined based on mass spectrometry (MS) and high-performance liquid chromatography (HPLC). Peptide stock solutions were freshly made by solubilizing in autoclaved distilled water, and their concentrations were quantitated using UV spectroscopy based on the absorbance difference at 215 and 225 nm as described. Peptide retention time was measured on a Waters C8 symmetry hydrophobic column as described. Other chemicals were purchased from Sigma (St. Louis, MO, USA) unless specified."}, "A. baumannii B28-16 [8]": {"tested_on": "A. baumannii B28-16", "type": "cell-based, Acinetobacter baumannii", "method": "as §2, §3"}, "K. pneumoniae E406-17": {"tested_on": "K. pneumoniae E406-17", "type": "cell-based, Klebsiella pneumoniae", "conditions": "E406-17", "method": "as §2, §3"}, "P. aeruginosa E411-17": {"tested_on": "P. aeruginosa E411-17", "type": "cell-based, Pseudomonas aeruginosa", "conditions": "E411-17", "method": "as §2, §3"}},
  "note": "No end group written: not given here.",
  "data": [
    {"substance": "RIVQRIKDFL-NH2 [RI-10]", "values": [
      {"measurement": "Disruption of preformed biofilms", "setting": "[1]", "value": "unable to disrupt"},
      {"measurement": "Membrane depolarization ability (order, words)", "setting": "S. aureus USA300 LAC [2]", "value": "unable to produce a similar effect"},
      {"measurement": "Disruption of 24 h preformed biofilms (words, found previously)", "setting": "[3]", "value": "neither LL-37 nor RI-10 was able to disrupt"},
      {"measurement": "Membrane permeation", "setting": "S. aureus USA300 LAC [4]", "value": "some membrane permeation"},
      {"measurement": "MIC", "setting": "S. aureus USA300", "value": ">32", "unit": "µM"},
      {"measurement": "Membrane permeation", "setting": "A. baumannii B28-16 [5]", "value": "some membrane permeation"},
      {"measurement": "Inhibitory activity at 32 µM", "setting": "[6]", "value": "did not show any inhibitory activity"},
      {"measurement": "MIC", "setting": "E. faecium V284-17", "value": ">32", "unit": "µM"},
      {"measurement": "MIC", "setting": "E. coli E423-17", "value": ">32", "unit": "µM"},
      {"measurement": "tHPLC (HPLC retention time)", "setting": "[7]", "value": 8.831, "unit": "min"},
      {"measurement": "MIC", "setting": "A. baumannii B28-16 [8]", "value": ">32", "unit": "µM"},
      {"measurement": "MIC", "setting": "K. pneumoniae E406-17", "value": ">32", "unit": "µM"},
      {"measurement": "MIC", "setting": "P. aeruginosa E411-17", "value": ">32", "unit": "µM"}
    ]}
  ]
}
